Assay results published in the kinase profiling compilation of Christmann-Franck et al. (2016).

What was measured:
Test in all cases: radiometric filter-binding kinase assay, Kinase HotSpot
Details in all cases: compound 0.5 µM; ATP 10 µM
FGFR2 (human) = FGFR2 (human) (UniProt P21802)
BTK (human) = BTK (human) (UniProt Q06187)
NEK4 (human) = NEK4 (human) (UniProt P51957)
PAK1 (human) = PAK1 (human) (UniProt Q13153)
PDPK1 (human) = PDPK1 (human) (UniProt O15530)
NEK7 (human) = NEK7 (human) (UniProt Q8TDX7)
STK24 (human) = STK24 (human) (UniProt Q9Y6E0)
KDR (human) = KDR (human) (UniProt P35968)
DSTYK (human) = DSTYK (human) (UniProt Q6XUX3)
FGFR4 (human) = FGFR4 (human) (UniProt P22455)
ULK1 (human) = ULK1 (human) (UniProt O75385)
WEE1 (human) = WEE1 (human) (UniProt P30291)
ROCK2 (human) = ROCK2 (human) (UniProt O75116)
MST1R (human) = MST1R (human) (UniProt Q04912)
OXSR1 (human) = OXSR1 (human) (UniProt O95747)
MAP3K5 (human) = MAP3K5 (human) (UniProt Q99683)
CLK4 (human) = CLK4 (human) (UniProt Q9HAZ1)
MAPK1 (human) = MAPK1 (human) (UniProt P28482)
MAP4K2 (human) = MAP4K2 (human) (UniProt Q12851)
HIPK1 (human) = HIPK1 (human) (UniProt Q86Z02)
RPS6KA5 KD2 (human) = RPS6KA5 KD2 (human) (UniProt O75582)
ROS1 (human) = ROS1 (human) (UniProt P08922)
TAOK3 (human) = TAOK3 (human) (UniProt Q9H2K8)
ACVR1 (human) = ACVR1 (human) (UniProt Q04771)
AKT1 (human) = AKT1 (human) (UniProt P31749)
PRKD3 (human) = PRKD3 (human) (UniProt O94806)
TAOK2 (human) = TAOK2 (human) (UniProt Q9UL54)
IKBKB (human) = IKBKB (human) (UniProt O14920)
CHEK1 (human) = CHEK1 (human) (UniProt O14757)
ZAP70 (human) = ZAP70 (human) (UniProt P43403)
STK3 (human) = STK3 (human) (UniProt Q13188)
CSNK2A1 (human) = CSNK2A1 (human) (UniProt P68400)
EPHA7 (human) = EPHA7 (human) (UniProt Q15375)
HIPK4 (human) = HIPK4 (human) (UniProt Q8NE63)
CAMKK1 (human) = CAMKK1 (human) (UniProt Q8N5S9)
JAK3 JH1 JH2 (human) = JAK3 JH1 JH2 (human) (UniProt P52333)
PIM3 (human) = PIM3 (human) (UniProt Q86V86)
PTK6 (human) = PTK6 (human) (UniProt Q13882)
EPHA4 (human) = EPHA4 (human) (UniProt P54764)
CDK1 CCNB1 (human) = CDK1 CCNB1 (human) (UniProt P06493+P14635)
TEK (human) = TEK (human) (UniProt Q02763)
MAPKAPK2 (human) = MAPKAPK2 (human) (UniProt P49137)

CLK4 (human), sequence (Q9HAZ1 whole entry, looked up): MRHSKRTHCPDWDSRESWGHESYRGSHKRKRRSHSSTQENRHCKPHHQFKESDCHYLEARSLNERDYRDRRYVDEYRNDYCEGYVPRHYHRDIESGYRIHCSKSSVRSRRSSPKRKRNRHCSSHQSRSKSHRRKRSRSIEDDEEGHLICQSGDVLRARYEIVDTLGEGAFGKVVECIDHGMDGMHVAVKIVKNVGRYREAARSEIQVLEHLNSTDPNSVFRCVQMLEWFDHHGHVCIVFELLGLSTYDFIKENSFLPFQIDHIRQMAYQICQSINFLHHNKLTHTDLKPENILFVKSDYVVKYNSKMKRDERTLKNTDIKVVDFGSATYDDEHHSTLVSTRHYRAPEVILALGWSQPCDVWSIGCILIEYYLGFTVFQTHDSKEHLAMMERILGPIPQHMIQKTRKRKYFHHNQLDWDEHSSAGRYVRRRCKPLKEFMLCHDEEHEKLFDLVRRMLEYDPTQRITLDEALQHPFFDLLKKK
PAK1 (human), sequence (Q13153 whole entry, looked up): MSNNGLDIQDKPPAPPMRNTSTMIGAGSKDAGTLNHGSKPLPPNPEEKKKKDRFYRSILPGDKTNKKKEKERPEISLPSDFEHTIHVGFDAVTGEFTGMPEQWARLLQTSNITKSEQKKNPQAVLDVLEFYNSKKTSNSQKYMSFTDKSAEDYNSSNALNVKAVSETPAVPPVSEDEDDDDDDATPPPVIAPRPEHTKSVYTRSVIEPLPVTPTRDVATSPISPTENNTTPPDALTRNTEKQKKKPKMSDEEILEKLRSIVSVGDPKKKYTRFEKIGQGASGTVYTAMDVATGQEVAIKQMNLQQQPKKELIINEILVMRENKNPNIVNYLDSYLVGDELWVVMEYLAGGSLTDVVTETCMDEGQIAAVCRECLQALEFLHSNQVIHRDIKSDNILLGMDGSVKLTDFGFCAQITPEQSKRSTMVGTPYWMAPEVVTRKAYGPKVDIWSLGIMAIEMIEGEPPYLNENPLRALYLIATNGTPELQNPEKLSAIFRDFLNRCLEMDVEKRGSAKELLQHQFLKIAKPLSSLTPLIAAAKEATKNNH
MAP4K2 (human), sequence (Q12851 whole entry, looked up): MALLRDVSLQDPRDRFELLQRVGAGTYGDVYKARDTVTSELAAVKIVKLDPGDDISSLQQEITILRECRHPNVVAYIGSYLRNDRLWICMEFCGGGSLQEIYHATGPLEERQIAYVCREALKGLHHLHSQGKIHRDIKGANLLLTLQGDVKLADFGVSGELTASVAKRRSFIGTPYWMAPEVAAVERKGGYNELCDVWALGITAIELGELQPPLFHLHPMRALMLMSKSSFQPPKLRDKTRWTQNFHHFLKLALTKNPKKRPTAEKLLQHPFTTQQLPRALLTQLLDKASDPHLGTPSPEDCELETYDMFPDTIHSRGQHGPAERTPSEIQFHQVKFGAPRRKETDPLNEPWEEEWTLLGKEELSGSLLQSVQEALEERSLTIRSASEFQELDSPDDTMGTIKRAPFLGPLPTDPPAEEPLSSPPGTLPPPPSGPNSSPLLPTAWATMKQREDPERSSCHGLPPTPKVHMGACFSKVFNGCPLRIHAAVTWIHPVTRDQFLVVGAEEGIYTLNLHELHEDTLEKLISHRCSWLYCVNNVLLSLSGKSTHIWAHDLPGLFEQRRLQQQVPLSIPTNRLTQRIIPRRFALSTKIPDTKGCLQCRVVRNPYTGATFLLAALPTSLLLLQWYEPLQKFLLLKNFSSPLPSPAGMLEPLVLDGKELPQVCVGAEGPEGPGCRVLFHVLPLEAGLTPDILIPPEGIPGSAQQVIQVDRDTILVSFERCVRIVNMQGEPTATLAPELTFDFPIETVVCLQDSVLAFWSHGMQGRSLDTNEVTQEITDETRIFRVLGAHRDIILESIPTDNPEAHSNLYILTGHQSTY
AKT1 (human), sequence (P31749 whole entry, looked up): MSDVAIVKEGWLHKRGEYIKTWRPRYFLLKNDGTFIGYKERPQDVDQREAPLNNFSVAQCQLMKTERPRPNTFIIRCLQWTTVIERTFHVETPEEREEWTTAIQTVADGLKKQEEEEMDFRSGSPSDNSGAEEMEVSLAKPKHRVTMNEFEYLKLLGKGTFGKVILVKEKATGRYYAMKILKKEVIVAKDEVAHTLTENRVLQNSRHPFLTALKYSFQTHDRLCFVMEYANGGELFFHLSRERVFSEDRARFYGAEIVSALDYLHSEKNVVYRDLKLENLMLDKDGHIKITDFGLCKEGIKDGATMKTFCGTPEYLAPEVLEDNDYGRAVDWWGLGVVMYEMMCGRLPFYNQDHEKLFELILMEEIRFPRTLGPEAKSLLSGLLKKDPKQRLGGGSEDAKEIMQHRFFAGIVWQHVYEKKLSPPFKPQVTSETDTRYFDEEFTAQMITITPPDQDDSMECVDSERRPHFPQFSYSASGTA
CDK1 CCNB1 (human), sequence (P06493 whole entry, looked up): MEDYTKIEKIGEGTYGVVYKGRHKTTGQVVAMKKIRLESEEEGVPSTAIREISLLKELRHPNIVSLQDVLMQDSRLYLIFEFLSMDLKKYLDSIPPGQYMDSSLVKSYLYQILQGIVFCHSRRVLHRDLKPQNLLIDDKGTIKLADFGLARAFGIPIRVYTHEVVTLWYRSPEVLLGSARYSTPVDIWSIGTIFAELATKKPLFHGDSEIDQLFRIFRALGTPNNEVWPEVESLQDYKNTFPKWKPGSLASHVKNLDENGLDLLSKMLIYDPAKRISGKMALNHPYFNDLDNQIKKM
CDK1 CCNB1 (human), sequence (P14635 whole entry, looked up): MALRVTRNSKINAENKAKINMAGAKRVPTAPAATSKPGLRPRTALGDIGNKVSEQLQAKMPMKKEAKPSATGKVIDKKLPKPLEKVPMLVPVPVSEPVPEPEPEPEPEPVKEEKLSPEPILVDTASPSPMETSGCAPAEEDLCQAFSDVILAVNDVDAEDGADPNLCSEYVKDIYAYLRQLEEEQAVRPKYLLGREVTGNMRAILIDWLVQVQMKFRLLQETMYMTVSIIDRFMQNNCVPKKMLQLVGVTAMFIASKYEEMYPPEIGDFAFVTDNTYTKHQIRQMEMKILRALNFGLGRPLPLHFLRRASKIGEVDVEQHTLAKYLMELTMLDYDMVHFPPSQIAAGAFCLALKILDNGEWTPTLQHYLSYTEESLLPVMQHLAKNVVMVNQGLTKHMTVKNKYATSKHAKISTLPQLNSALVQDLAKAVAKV
ROCK2 (human), sequence (O75116 whole entry, looked up): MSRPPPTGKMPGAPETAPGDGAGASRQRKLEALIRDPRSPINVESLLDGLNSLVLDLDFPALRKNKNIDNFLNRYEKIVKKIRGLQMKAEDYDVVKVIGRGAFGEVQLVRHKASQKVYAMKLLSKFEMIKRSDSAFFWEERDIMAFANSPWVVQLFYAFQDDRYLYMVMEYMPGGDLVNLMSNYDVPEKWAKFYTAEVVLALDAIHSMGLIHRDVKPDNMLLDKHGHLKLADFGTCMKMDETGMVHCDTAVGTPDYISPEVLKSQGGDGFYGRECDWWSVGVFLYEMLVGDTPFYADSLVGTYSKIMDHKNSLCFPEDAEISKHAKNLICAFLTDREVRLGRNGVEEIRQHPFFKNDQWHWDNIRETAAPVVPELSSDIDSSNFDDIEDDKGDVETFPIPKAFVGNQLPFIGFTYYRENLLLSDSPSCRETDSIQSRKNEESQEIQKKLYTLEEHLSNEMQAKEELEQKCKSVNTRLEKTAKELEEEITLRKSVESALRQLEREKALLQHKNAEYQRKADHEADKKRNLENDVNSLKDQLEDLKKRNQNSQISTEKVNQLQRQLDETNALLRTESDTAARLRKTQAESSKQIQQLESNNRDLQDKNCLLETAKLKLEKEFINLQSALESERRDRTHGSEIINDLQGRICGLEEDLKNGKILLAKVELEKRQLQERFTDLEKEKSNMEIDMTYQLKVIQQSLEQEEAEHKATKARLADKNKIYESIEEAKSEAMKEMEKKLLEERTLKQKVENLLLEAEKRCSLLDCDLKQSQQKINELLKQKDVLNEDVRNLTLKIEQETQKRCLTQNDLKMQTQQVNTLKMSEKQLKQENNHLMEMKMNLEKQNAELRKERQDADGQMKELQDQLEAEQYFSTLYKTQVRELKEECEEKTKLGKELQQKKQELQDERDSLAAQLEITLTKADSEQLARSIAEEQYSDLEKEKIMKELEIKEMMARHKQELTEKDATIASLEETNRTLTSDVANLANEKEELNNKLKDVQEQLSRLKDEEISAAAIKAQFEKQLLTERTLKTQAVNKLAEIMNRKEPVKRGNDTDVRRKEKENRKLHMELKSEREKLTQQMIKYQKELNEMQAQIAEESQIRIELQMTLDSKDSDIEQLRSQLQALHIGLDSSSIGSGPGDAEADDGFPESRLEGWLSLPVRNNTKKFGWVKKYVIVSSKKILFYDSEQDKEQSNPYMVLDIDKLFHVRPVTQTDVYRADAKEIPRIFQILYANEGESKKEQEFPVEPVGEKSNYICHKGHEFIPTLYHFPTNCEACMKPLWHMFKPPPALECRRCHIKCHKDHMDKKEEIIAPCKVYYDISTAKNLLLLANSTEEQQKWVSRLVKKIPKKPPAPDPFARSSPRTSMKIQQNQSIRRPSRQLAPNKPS

Structure (SMILES): CS(=O)c1ccc(-c2nc(-c3ccc(F)cc3)c(-c3ccncc3)[nH]2)cc1 (configuration not stated)
- residual activity (FGFR2 (human)): 103%
- residual activity (BTK (human)): 97.2%
- residual activity (NEK4 (human)): 98.2%
- residual activity (PAK1 (human)): 99.2%
- residual activity (PDPK1 (human)): 96.3%
- residual activity (NEK7 (human)): 98.9%
- residual activity (STK24 (human)): 99%
- residual activity (KDR (human)): 99.2%
- residual activity (DSTYK (human)): 100%
- residual activity (FGFR4 (human)): 73.8%
- residual activity (ULK1 (human)): 89.3%
- residual activity (WEE1 (human)): 92.1%
- residual activity (ROCK2 (human)): 98.4%
- residual activity (MST1R (human)): 101%
- residual activity (OXSR1 (human)): 102%
- residual activity (MAP3K5 (human)): 107%
- residual activity (CLK4 (human)): 98.7%
- residual activity (MAPK1 (human)): 94.7%
- residual activity (MAP4K2 (human)): 106%
- residual activity (HIPK1 (human)): 104%
- residual activity (RPS6KA5 KD2 (human)): 103%
- residual activity (ROS1 (human)): 94.4%
- residual activity (TAOK3 (human)): 103%
- residual activity (ACVR1 (human)): 97.4%
- residual activity (AKT1 (human)): 102%
- residual activity (PRKD3 (human)): 84.1%
- residual activity (TAOK2 (human)): 94%
- residual activity (IKBKB (human)): 106%
- residual activity (CHEK1 (human)): 97.3%
- residual activity (ZAP70 (human)): 94.4%
- residual activity (STK3 (human)): 102%
- residual activity (CSNK2A1 (human)): 86.2%
- residual activity (EPHA7 (human)): 83.1%
- residual activity (HIPK4 (human)): 93.5%
- residual activity (CAMKK1 (human)): 125%
- residual activity (JAK3 JH1 JH2 (human)): 93.9%
- residual activity (PIM3 (human)): 98.1%
- residual activity (PTK6 (human)): 54.2%
- residual activity (EPHA4 (human)): 95.6%
- residual activity (CDK1 CCNB1 (human)): 99.1%
- residual activity (TEK (human)): 94.5%

Structure (SMILES): CC(C)(C)c1nc2c3ccc(F)cc3c3c(=O)[nH]ccc3c2[nH]1
- residual activity (FGFR2 (human)): 99.1%
- residual activity (BTK (human)): 80.5%
- residual activity (NEK4 (human)): 65.6%
- residual activity (PAK1 (human)): 82.1%
- residual activity (PDPK1 (human)): 27%
- residual activity (NEK7 (human)): 76.5%
- residual activity (STK24 (human)): 82.4%
- residual activity (KDR (human)): 103%
- residual activity (DSTYK (human)): 62%
- residual activity (FGFR4 (human)): 96.5%
- residual activity (ULK1 (human)): 12.8%
- residual activity (WEE1 (human)): 87.4%
- residual activity (ROCK2 (human)): 70.7%
- residual activity (MST1R (human)): 103%
- residual activity (OXSR1 (human)): 100%
- residual activity (MAP3K5 (human)): 84.4%
- residual activity (CLK4 (human)): 70.7%
- residual activity (MAPK1 (human)): 96.1%
- residual activity (MAPKAPK2 (human)): 99.6%
- residual activity (MAP4K2 (human)): 66.2%
- residual activity (HIPK1 (human)): 88.7%
- residual activity (RPS6KA5 KD2 (human)): 58%
- residual activity (ROS1 (human)): 31.2%
- residual activity (TAOK3 (human)): 50.3%
- residual activity (ACVR1 (human)): 135%
- residual activity (AKT1 (human)): 86.8%
- residual activity (PRKD3 (human)): 10.8%
- residual activity (IKBKB (human)): 52.1%
- residual activity (CHEK1 (human)): 22.9%
- residual activity (ZAP70 (human)): 88.9%
- residual activity (STK3 (human)): 5.45%
- residual activity (CSNK2A1 (human)): 82.9%
- residual activity (EPHA7 (human)): 96%
- residual activity (HIPK4 (human)): 107%
- residual activity (CAMKK1 (human)): 81.4%
- residual activity (JAK3 JH1 JH2 (human)): 0.445%
- residual activity (PIM3 (human)): 33.9%
- residual activity (PTK6 (human)): 88%
- residual activity (EPHA4 (human)): 101%
- residual activity (CDK1 CCNB1 (human)): 74.9%
- residual activity (TEK (human)): 101%
